Source: article PMC4599014, “The Cell Shape-determining Csd6 Protein from Helicobacter pylori Constitutes a New Family of L,D-Carboxypeptidase*” (The Journal of Biological Chemistry, 2015)
Read-outs that look alike come from different tables or passages of the source. [ ]: non-standard residue; d: D form. mDAP = meso-diaminopimelic acid

Key:
[1] = molecular target: H. pylori Csd6 (Helicobacter pylori, UniProt O25255); assay: SPR kinetics and affinity on immobilized Csd6; type: binding, Helicobacter pylori 26695; conditions: for kon: read-out: association rate constant ka; for koff: read-out: dissociation rate constant kd
Procedure: The kinetics and affinity of Csd6 with the synthetic muramyl tetrapeptide and muramyl tripeptide (β-methyl N-acetylmuramic acid-L-Ala^1-γ-D-Glu^2-mDAP^3) as a reaction product were assessed using a Reichert SR7500 surface plasmon resonance (SPR) dual channel instrument (Reichert, Depew, NY). Purified Csd6 in 20 mM sodium acetate, pH 5.5, was immobilized using the standard amino coupling at 20 μl min^−1 on a carboxymethyl dextran hydrogel surface sensor chip (Reichert, Depew, NY) until saturation was achieved. The running buffer B used in all SPR experiments was 20 mM HEPES, pH 7.9, and 150 mM sodium chloride. SPR experiments were performed at 25 °C. The muramyl tetrapeptide or muramyl tripeptide at concentrations of 15.6, 31.3, 62.5, 125, 250, and 500 μM was injected over the Csd6-chip at 30 μl min^−1 for 5 min for association analyses. Subsequently, the running buffer was flowed over the chip for an additional 6 min (30 μl min^−1) for dissociation analyses. Regeneration of the chip was carried out using 20 mM sodium hydroxide. Binding was detected as a change in the refractive index at the surface of the chip as measured by the response unit. A reference flow cell was used to record the response by bovine serum albumin (BSA) as a […], and the response by BSA was subtracted from each sample. SPR data were fit using the Scrubber2 software.
FIGURE 5.

[2] = system: Csd6; assay: Crystal structure of D-Ala-bound Csd6; type: binding, Helicobacter pylori 26695; conditions: native crystal preincubated 2 min with 96 mM D-Ala; 2.04 Å, PDB 4Y4V
Procedure: Native crystals of ligand-free Csd6 were grown at 23 °C by the sitting-drop vapor diffusion method. Sitting drops were prepared by mixing 0.5 μl of the protein solution, 0.1 μl of a 10-fold diluted microseed crystal solution, and 0.4 μl of the reservoir solution (1.5% (v/v) Tacsimate, pH 7.0, 22% (w/v) PEG 3,350, and 100 mM sodium-HEPES, pH 7.5). The microseed crystals were originally obtained with ligand-free Csd6 using the above reservoir solution. The crystals grew to approximate dimensions of 0.2 × 0.1 × 0.05 mm within a few days. X-ray diffraction data for the ligand-free Csd6 (Csd6-unbound) were collected at 100 K using a cryoprotectant solution containing 20% (v/v) glycerol added to the reservoir solution (Table 1). X-ray diffraction data for the D-Ala-bound Csd6 (Csd6-Ala) were collected at 100 K after the native crystal was preincubated for 2 min in a cryoprotectant solution containing both 20% (v/v) glycerol and 96 mM D-Ala, which were added to the reservoir solution (Table 1). The structures of both Csd6-unbound and Csd6-Ala were determined by molecular replacement with the program MolRep ([47]) using the refined model of EMTS-derivatized Csd6. Stereochemistry of the refined models was evaluated using MolProbity ([48]).

[3] = system: Csd6; type: biochemical, Helicobacter pylori 26695; conditions: analyte 5 mM, Csd6 5 μM, 2 h, 37 °C; 20 mM sodium phosphate, pH 6.0, 150 mM sodium chloride; MALDI-QIT-TOF MS
[4] = system: LdtMt2; conditions: positive control for L,D-TPase activity; recombinant LdtMt2 (Ala-55–Ala-408); MALDI-QIT-TOF MS
[5] = molecular target: the molecule itself; assay: AUC; equilibrium sedimentation; 20 mM Tris-HCl pH 7.9, 150 mM NaCl, 1.5 mM TCEP, 20 °C; 16,000 and 20,000 rpm; Csd6 monomer concentrations 2.74, 3.65 and 4.56 μM
[6] = type: biochemical; conditions: muramyl tetrapeptide
[7] = recombinant hexahistidine-tagged Csd6; cited from earlier work
Text: In many bacteria, including H. pylori, the peptidoglycan layer is remodeled by a number of cell-wall hydrolases as well as synthetases for the peptidoglycan maturation, regulation of cell-wall growth, cell division, peptidoglycan turnover and recycling, cell lysis, and the release of peptidoglycan fragments for host-pathogen interactions ([18]). In H. pylori, an amidase AmiA ([19]), peptidases Csd1–4, potential regulators Csd5 and CcmA ([20][–][22]), and another peptidase Csd6 ([23]) are required to tailor the peptidoglycan layer to generate the helical cell shape. We have recently reported th ...

[8] = SPR, Reichert SR7500, Csd6 immobilized by amine coupling, 20 mM HEPES, pH 7.9, 150 mM sodium chloride, 25 °C, analyte 15.6-500 μM, Scrubber2 fit, read-out: KD
[9] = muramyl tripeptide vs muramyl tetrapeptide, SPR, Csd6

Molecule `C[C@@H](N)C(=O)O` [D-Ala] has a Kd [1] of 224 µM, a kon [1] of 1.05 M⁻¹ s⁻¹ and a koff [1] of 0.00023 s⁻¹. For the same molecule, the “binding in crystal structure (in words)” value [2] was “two D-Ala molecules are well ensconced within the active site of monomer A with clear electron density”.

In the case of `N[C@H](CCC[C@H](N)C(=O)O)C(=O)O` [mDAP, meso-2,6-diaminopimelate], the Kd [1] is reported as 94 µM, the kon [1] is reported as 1.49 M⁻¹ s⁻¹ and the koff [1] is reported as 0.00014 s⁻¹.

For “β-methyl N-acetylmuramic acid-L-Ala^1-γ-D-Glu^2-mDAP^3 [muramyl tripeptide]”, the Kd [1, 8] was 510 µM, the “ka relative to that for the muramyl tetrapeptide” value [1, 9] was “roughly 3 ×” and the “kd relative to that for the muramyl tetrapeptide” value [1, 9] was ~50 ×.

“β-methyl N-acetylmuramic acid-L-Ala^1-γ-D-Glu^2-mDAP^3-D-Ala^4 ({β‑methyl N‑acetylmuramic acid}-AE[mDAP][dA]-OH; not fully specified (residue 2)) [muramyl tetrapeptide]” showed a Kd [1, 8] of 27 µM.

With “β-methyl N-acetylmuramic acid-L-Ala^1-γ-D-Glu^2-mDAP^3-D-Ala^4 [muramyl tetrapeptide]” the “reaction product upon incubation with Csd6” value [3] was “the muramyl tripeptide was detected as the sole reaction product of trimming without any dimeric cross-linked species” and the “reaction product upon incubation with LdtMt2” value [4] was “not only the muramyl tripeptide (Tri in Fig. 1C) but also the dimeric cross-linked species (Tetra-Tri in Fig. 1C) were detected as the reaction products”.

With “β-methyl N-acetylmuramic acid-L-Ala^1-γ-D-Glu^2-mDAP^3-D-Ala^4-D-Ala^5 [muramyl pentapeptide]” the “reaction product upon incubation with Csd6” value [3] was “no reaction product could be detected”.

B1: Helicobacter pylori Csd6 (HP0518), residues Val-13–Lys-330 (enzyme, Helicobacter pylori 26695, UniProt O25255 13-330, looked up)
chain: VGLNASDRLLEIMRLYQKQGLEMVGQKLDSYLADKSFWAEELQNKDTDFGYYQNKQFLFVANKSKPSLEFYEIENNMLKKINSSKALVGSKKGDKTLEGDLATPIGVYRITQKLERLDQYYGVLAFVTNYPNLYDTLKKRTGHGIWVHGMPLNGDRNELNTKGCIAIENPLLSSYDKVLKGEKAFLITYEDKFFPSTKEELSMILSSLFQWKEAWARGDFERYMRFYNPNFTRYDGMKFNAFKEYKKRVFAKNEKKNIAFSSINVIPYPNSQNKRLFYVVFDQDYKAYQHNKLSYSSNSQKELYIEIENNQVSIIMEK
notes: Csd6 (HP0518), L,D-carboxypeptidase of Helicobacter pylori strain 26695, residues Val-13–Lys-330 of the gene product; In the Csd6-Ala crystal, Cys-176 of monomer A is oxidised to sulfenic acid; also called Csd6(13–330); recombinant Csd6; source: E. coli Rosetta2(DE3)pLysS, purified (HiTrap Chelating HP, Superdex 200)
For B1, the “stoichiometry N” value [5] was 2.

B2: Csd6: recombinant H. pylori 26695 Csd6 protein, residues Val-13–Lys-330, with N-terminal His6-containing tag (protein)
chain: B1 chain
modifications: left off: His6-containing tag, N-terminal, state not stated
notes: recombinant H. pylori 26695 Csd6 protein, residues Val-13–Lys-330, with N-terminal His6-containing tag
In the case of B2, the “L,D-carboxypeptidation activity upon EDTA treatment (in words)” value [6] is listed as “no change upon EDTA treatment” and the “conversion of monomeric tetrapeptides” value [7] is listed as “complete conversion of the monomeric tetrapeptides to tripeptides”.
